For data set [1] the following is noted: cited from earlier work.
The next data set deals with tyrosinase. The conditions noted are these: cited from earlier work.
Data set [2] in a line: copper-chelating activity assay (pyrocatechol violet). The conditions noted are these: 5 mM. The method, then:
The copper-chelating activity of compound 4 was assessed using previously reported protocol[44] with minor modifications. […] After that, the absorbance of each well was measured at 620 nm. The copper-chelating activity was calculated using the formula: Copper-chelating activity (%) = [(Acon – Asam)/Acon] × 100, where Acon and Asam are the absorbance of the control and test sample, respectively.

Data set [3] relates to B16F10 murine melanoma cells. The data set is described as follows: melanin assay in α-MSH-stimulated cells. Format: cell-based. As to the method: Melanin production was assessed according to the methodology outlined in a previous study. B16F10 cells were cultured in 6-well plates at a density of 100,000 cells per well. After overnight incubation, the cells were treated with different concentrations of the test compound for 48 h. Note that 1 μM of α-melanocyte-stimulating hormone (α-MSH) (Sigma Aldrich, St. Louis, MO, USA) was used to induce melanin synthesis. Following treatment, the cells were washed twice with PBS, detached using trypsin/EDTA, and centrifuged at 3,000×g for 5 min. The resulting cell pellets, containing approximately 700,000 cells, were solubilised in 2 M NaOH and heated at 100 °C for 30 min. Melanin content was quantified by measuring absorbance at 405 nm.

A further data set can be described thus: cytotoxicity MTT assay. Format: cell-based, murine. To be noted: mouse, B16F10 melanoma cells, read-out: cell viability. The method, then: Cell viability was determined using the MTT assay (3-(4,5-dimethylthiazol-2-yl)-2,5-diphenyltetrazolium bromide). B16F10 (murine melanoma cell line) was purchased from American Type Culture Collection (ATCC, Manassas, VA, USA). B16F10 cells were seeded into 96-well plates at a density of 1500 cells per well. After overnight incubation, the cells were treated with different concentrations of the test compound for 48 h. Following this, MTT reagent was added to each well and incubated for 3 h. The culture medium was then removed, and 100 μL of DMSO was used to dissolve the formazan crystals. Absorbance was measured at 540 nm to evaluate cell viability.

The next data set addresses mushroom tyrosinase. The data set is described as follows: mushroom tyrosinase activity assay (L-DOPA substrate). To be noted: mean ± SEM. It is filed as biochemical. The method, then:
The procedure for the mushroom tyrosinase activity assay was conducted in accordance with the methodology described in a previous report. […] In a 96-well plate, 40 μL of mushroom tyrosinase (5 U/μL, Sigma Aldrich, St. Louis, MO, USA) was added to each well, followed by 50 μL of the test compound at various concentrations. After that, 10 μL of 50 mM L-DOPA (purity ≥98%, Sigma-Aldrich, St. Louis, MO, USA) were added and incubated in darkness at 37 °C for 15 min. Finally, the absorbance was measured at 450 nm. The experiment was conducted in triplicate. IC50 values were determined using GraphPad Prism 10.2.2 software.

Like-named read-outs stand apart in the source and are kept apart here.

As for `Sc1nc2ccccc2s1` [Compound 2-TBT, 2-thiobenzothiazole], the Copper-chelating activity in data set [1] was 48% to 69.
Take `CC1(C)C=Cc2c(O)ccc(C3=Cc4ccc(O)cc4OC3)c2O1` [glabrene]: on tyrosinase, the IC50 was 7600 µM.
For the molecule `C[C@@H]1[C@H](O)[C@@H](C)/C=C/C=C/C=C/C=C/C=C/C=C/C=C/[C@H](O[C@@H]2O[C@H](C)[C@@H](O)[C@H](N)[C@@H]2O)C[C@@H]2O[C@](O)(C[C@@H](O)C[C@@H](O)[C@H](O)CC[C@@H](O)C[C@@H](O)CC(=O)O[C@H]1C)C[C@H](O)[C@H]2C(=O)O` [amphotericin B], at tyrosinase, the IC50 is 263 ± 11.8 µM.
As for `O=C(O)CN(CCN(CC(=O)O)CC(=O)O)CC(=O)O` [EDTA, ethylenediaminetetraacetic acid], in data set [2], the Copper-chelating activity was 95%.
As for `N=C(N)NN=C1C=CC(=NNC(N)=S)C=C1` [ambazone], the IC50 on tyrosinase is 15 µM.
For `CC(=O)Nc1ccc(/C=N/NC(N)=S)cc1` [thioacetazone], at tyrosinase, the IC50 was 14 µM.
Consider `S=C(NCc1ccc(CNC(=S)Nc2ccc(Cl)cc2)cc1)Nc1ccc(Cl)cc1` [Compound 4], for which, in data set [3] (10 and 30 μM, 48 h, α-MSH (1 μM)-treated B16F10, vs α-MSH group), the melanin production entry is recorded as “significantly inhibited melanin production”. Moreover, in data set [3] (α-MSH-stimulated B16F10, approximately), the “anti-melanogenic activity compared to KA” value is reported as 30–100 times. In addition, the viability at 48 h, 1 µM in “cytotoxicity MTT assay” (1 μM) is ~90%. Moreover, the viability at 48 h, 3 µM in “cytotoxicity MTT assay” (3 μM) is ~90%. Moreover, the viability at 48 h, 10 µM in “cytotoxicity MTT assay” (10 μM) was ~75%. For the same molecule, in the data set “cytotoxicity MTT assay” (30 μM), the viability at 48 h, 30 µM was ~50%. In addition, the viability at 48 h, 100 µM in “cytotoxicity MTT assay” (100 μM) is < 40%. Further, at mushroom tyrosinase, half-maximal inhibition (IC50) was put at 61.6 ± 7.82 µM. The Copper-chelating activity in data set [2] is 64%.
As for `O=c1cc(CO)occ1O` [KA, kojic acid], the melanin content result in data set [3] (1000 μM, 48 h, α-MSH-stimulated B16F10, vs α-MSH group) is “reduced melanin content significantly”. The Copper-chelating activity in data set [2] is listed as 75%.
Consider `S=C1NCCCc2occc21` [Compound T4FAT, 5,6,7,8-tetrahydro-4H-furo[3,2-c]azepine-4-thione], for which the copper ions chelated result in data set [1] (200 mM ref 63) was “more than 80%”.

The term IC50 denotes the concentration that inhibits the measured activity by half. Broadly, the viability is a per cent measure of how many cells are alive, often set against a control.

These data come from paper PMC12897533, “Discovery of bis-thiourea derivatives as potent tyrosinase inhibitors: combined experimental and computational study” (Journal of Enzyme Inhibition and Medicinal Chemistry, 2025).
